According to patent US11465972B2, “Inhibitors of oxidized low-density lipoprotein receptor 1 and methods of use thereof” (United States Government as represented by the Department …, priority 2015, dated 2022):
Entries after “also recorded” stand apart in the source; their conditions may differ.

What was measured:
Assay type in all cases: cell-based, human
LOX-1 protein expression = test: ox-LDL-induced LOX-1 protein expression in HUVECs (Western blotting); conditions: 200 nM, 5 μg/ml ox-LDL
Experimental: (§1) FIG. 3A, FIG. 3B, FIG. 3C and FIG. 3D depict the inhibitory effect of the lead compounds on Dil-ox-LDL uptake by HUVECs and CHO cells (measured by flow cytometry) and the effect of the lead compounds on ox-LDL-induced LOX-1 mRNA and protein expression. (FIG. 3A) (Upper Panel) Flow cytometry measurements using HUVECs in the presence of the five lead compounds (Mol-1-Mol-5), each a at 200 nM concentration. (Lower Panel) The percentage of internalized ox-LDL. Graphs show data as mean (±SD); n=4. *P<0.01 or <0.05 vs. control. (FIG. 3B) IC50 value for Mol-5. IC50 value (in nM) is based on inhibition of Dil-ox-LDL uptake in CHO cells overexpressing human LOX-1. Graphs show data as mean (±SD); n=5. *P<0.01 or <0.05 vs. control. (FIG. 3C) Western blotting assay showing LOX-1 protein expression in HUVECs following incubation with 200 nM Mol-1 to Mol-5 for 30 min, and subsequently exposure to 5 μg/mL ox-LDL for 6 hours. (FIG. 3D) The variation of LOX-1 mRNA expression levels at different concentrations of the compounds following exposure of HUVECs to 5 μg/mL ox-LDL. The concentrations are indicated on the X-axis and the LOX-1 mRNA levels are shown on the Y-axis. The plots for all the five molecules are shown in separate colors. Graphs show data as mean (±SD); n=3. *P<0.01 vs. control; #P<0.01 vs. ox-LDL group.
Internalization of ox-LDL via binding to LOX-1 activates endothelial cells and upregulates the expression of LOX-1^2. In this study, it was tested if the lead molecules would inhibit LOX-1 expression. Accordingly, LOX-1 protein expression in HUVECs was measured by Western blotting.
HUVECs were plated into 6-well cell culture plates. […] The protein concentrations were measured by Bradford protein assay. […] The protein bands were scanned by a Gel Doc™ XR System (Bio-Rad, Hercules, Calif.), and the density of each band was quantified by Image J software. The relative expression of target proteins was calculated with comparison to […] bands.

P38 MAPK = test: ox-LDL-induced activation (phosphorylation) of P38 MAPK in HUVECs (Western blotting); conditions: 200 nM
Experimental: (§2) FIG. 4A, FIG. 4B, FIG. 4C, FIG. 4D and FIG. 4E depict the effect of lead molecules on ox-LDL-induced the activation of MAPKs in HUVECs, VCAM-1 expression and monocyte adhesion onto HUVECs. […] (FIG. 4B) Western blot analyses showing phospho-p38MAPK expression in HUVECs following exposure to 200 nM of each compound for 30 min, and subsequently exposed to 5 μg/mL ox-LDL for 6 hours. […] (FIG. 4D) The variation of VCAM-1 mRNA expression levels with different concentrations of the led compounds. The concentrations are indicated on the X-axis and the VCAM-1 mRNA levels are shown on the Y-axis. The plots for all five molecules are shown in separate colors. […] Graphs show data as mean (±SD); n=3 (for Western blot and PCR assays) or n=20 (for monocyte adhesion assay). *P<0.01 vs. control; #P<0.01 or <0.05 vs. ox-LDL group.
To assess downstream effects of each candidate molecule, ox-LDL induced expression and activation of ERK1/2 and P38MAPK was measured in HUVECs in the absence or presence of each candidate molecule (200 nM). […] Importantly, unphosphorylated MAPKs were not affected by any of the candidate molecules.
(§3) HUVECs were plated into 6-well cell culture plates. When the cells were reached 70% confluence, they were treated with 200 nM of each of 5 molecules for 30 min, and subsequently exposed to […] ox-LDL for 6 h. After washing with PBS for 2 times, the cells were treated with Cell Lysis Buffer (Promega, Madison, Wis.) with protease Inhibitor and phosphatase Inhibitor (Sigma-Aldrich, St. Louis, Mo.). The protein concentrations were measured by Bradford protein assay. Proteins (20 tg) were separated by electrophoresis in 12% precast SDS-PAGE gels, and were transferred onto Nitrocellulose Blotting Membrane (GE Healthcare Life Science, Piscataway, N.J.). The membranes were then incubated with LOX-1, VCAM-1 (Abcam, Cambridge, Mass.), ERK1/2, phospho-ERK1/2, phospho-p38MAPK (Cell Signaling Technology, Inc., Danvers, Mass.), or […] (Santa Cruz Biotechnology, Inc., Dallas, Tex.) primary antibodies (1:1000˜1:2000) in blocking solution at 4° C. overnight. Following wash with TBS-1 for 3 times, the blots were incubated with HRP-conjugated secondary antibodies (1:10000) in blocking solution for 1 hour at room temperature. After 3 washes with PBS, the blots were treated with Western Blotting Luminol Reagents (Santa Cruz Biotechnology) for 3 min and then exposed to Blue Basic Autorad Film (GeneMate, Kaysville, Utah). The protein bands were scanned by a Gel Doc™ XR System (Bio-Rad, Hercules, Calif.), and the density of each band was quantified by Image J software. The relative expression of target proteins was calculated with comparison to […] bands.

[1] = system: VCAM-1 protein expression; test: ox-LDL-induced VCAM-1 protein expression in HUVECs (Western blotting); conditions: 200 nM, 5 μg/ml ox-LDL
Experimental: as §2
It is known that the activation of LOX-1 by ox-LDL in endothelial cells stimulates the expression of leukocyte adhesion molecules^26. In this study, VCAM-1 expression in HUVECs in the presence of 5 μg/ml ox-LDL was measured. […] VCAM-1 mRNA expression in HUVECs exposed to 5 μg/mL ox-LDL for 6 hrs was also measured.
as §3

LOX-1 mRNA = test: ox-LDL-induced LOX-1 mRNA expression in HUVECs (q-PCR); conditions: for effect on ox-LDL-induced LOX-1 mRNA upregulation / LOX-1 transcription (in words): 5 μg/ml ox-LDL 6 h, 20, 200, 2000 nM; for reduction of LOX-1 transcription: 200 nM concentration
Experimental: as §1
LOX-1 mRNA levels in HUVECs treated with ox-LDL in the absence or presence of the lead molecules at varying concentrations was also measured.
HUVECs were plated into 12-well plates, and treated with 0, 20, 200 and 2000 nM of each of 5 molecules […] for 30 min, and subsequently exposed to […] ox-LDL for 6 h at 37° C. Total RNA was isolated from the treated HUVECs by using a RNeasy Mini-Kit […] according to the manufacturer's instructions. Prior to using, RNA was treated with DNase I and diluted to 100 ng/tL. 100 ng RNA was applied to synthesize cDNA with SuperScript III 1st Strand DNA Synthesis Kit. qPCR was performed using the Applied Biosystems Fast 7500HT real-time PCR system with a 20 tL reaction volume including 10 tL GoTaq qPCR Master Mix (Promega, Madison, Wis.), 100 ng of cDNA and 0.3 tM primers. Data was analyzed by using MX3000P software. Relative mRNA expression was quantified using the comparative threshold cycle (Ct) method. The sequences of primers used for PCR reaction have been described previously^30.

Compound | effect on ox-LDL-induced LOX-1 protein expression (LOX-1 protein expression) | effect on ox-LDL-induced activation of P38 MAPK (in words) (P38 MAPK) | reduction of the level of phospho-P38 MAPK (P38 MAPK) | effect on ox-LDL-induced VCAM-1 protein expression [1] | effect on ox-LDL-induced LOX-1 mRNA upregulation / LOX-1 transcription (in words) (LOX-1 mRNA) | effect on ox-LDL-induced VCAM-1 protein expression ([1]; listed as MoL-4) | reduction of LOX-1 transcription (LOX-1 mRNA)
CCOCCCNC(=O)CCN1C(=O)COc2ccccc21 [Mol-1] | significantly reduced | significantly inhibited | around 60% | significantly reduced | – | – | –
CC(C)(C)C(=O)NCCc1nc2ccccc2n1Cc1ccccc1F [Mol-2] | – | no significant effect | – | – | no significant effect | – | –
CCCn1c(CCNC(=O)CCCO)nc2ccccc21 [Mol-4] | significantly reduced | significantly inhibited | around 60% | significantly inhibited | significantly reduced | significantly reduced | 47%
Cc1cc(C)n(CC(O)COc2ccccc2)n1 (stereo not shown) [Mol-5, 1-(3,5-dimethyl-1H-pyrazol-1-yl)-3-phenoxypropan-2-ol] | significantly reduced | significantly inhibited; also recorded: maximum inhibition | 75% | significantly reduced; also recorded: significantly inhibited | significantly reduced | – | 70%
